Assays:
[1] = test system: creatine transporter (CrT) protein; assay: Creatine transporter immunoreactivity in rat brain; format: in vivo; conditions: 4 hours after icv 0.4 um/kg; dorsomedial, supramamillary nucleus, III ventricle, habenular (p<0.05), paraventricular thalamic areas; FIG. 7
Description: In experiments involving immunohistochemistry, animals were injected icv with CoPP 0.4 umol/kg body weight or with vehicle. Four hours after injection, animals were anesthetized with halothane and perfused through the left ventricle of the heart, initially with oxygenated Krebs buffer and then with ˜350 ml of 4% paraformaldehyde in 0.1M NaCl, pH 7.4 phosphate buffered saline (PBS). Brains were extracted from the skull, hypothalamic blocks dissected (by coronal cuts anterior and posterior to hypothalamic landmarks) and post-fixed in 4% paraformaldehyde solution at 4 degrees C. overnight. The following day, the blocks were transferred to 30% sucrose and incubated overnight at 4 degrees C. […] They were allowed to dry, rewetted with PBS buffer and cover-slipped with Citifluor (Ted Pella, Reading, Calif.). Creatine transporter (CrT) and Fos studies were performed using indirect fluorescence visualization with rabbit anti-CrT (1:40; Alpha Diagnostics, San Antonio, Tex.) with goat anti-rabbit Cy3 (Jackson Immuno Research Laboratories, Inc., West Grove, Pa.) and rabbit c-Fos-AB5 (1:2,000; Oncogene Research Products, Cambridge, Mass.) with goat anti-rabbit Cy3 (1:500; Jackson Immuno Research Laboratories, Inc.) as the secondary antibody. […] Areas of interest were quantitated on each section in which they appeared and averaged to yield means+SEM of percentages. […]

[2] = test system: creatine transporter (CrT) mRNA; assay: Real-Time PCR of creatine transporter mRNA in hypothalami of CoPP-treated rats; format: in vivo, rat; conditions: hypothalamus, 48 hours after icv, normalized to L32 mRNA, mean ± SEM
Description: RNA was purified with RNAase-free DNase (Promega) at 37 degrees C. for 30 min. The first strand of cDNA was synthesized by adding 1 ug of purified RNA from each sample to 20 ul containing MMLV reverse transcriptase (Invitrogen Life Tech). Creatine transporter (CrT) gene expression was further quantatified by Real-Time PCR using sense primer: 5′[…]′ (SEQ ID NO: 1); antisense primer: 5′[…]-3′ (SEQ ID NO:2) and TaqMan probe: 5′[…]-3′ (SEQ ID NO: 3) (MMG-Biotech). The rat ribosomal protein L32 gene was used as a loading control. Each cDNA sample (1 ul) derived from the 20 ul reverse transcription reaction and 1 ul RNA template was mixed with 24 ul master mixture (Perkin Elmer) in a 96-well TaqMan plate. The PCR was run in an ABI prism 7700 thermocycler (Applied Biosystems) at 50 degrees C. for 2 min and 95 degrees C. for 10 min; this was followed by 95 degrees C. for 15 sec and 60 degrees C. for 1 min for 40 cycles. The data were analyzed using software supplied with the ABI prism 7700.

[3] = test system: hypothalamic creatine and phosphocreatine; assay: Creatine assay (HPLC) of hypothalamic blocks; format: in vivo, rat; conditions: 48 hours after 0.4 um/kg
Description: Hypothalamic blocks were rapidly dissected from animals treated icv with vehicle or CoPP at the indicated doses and snap-frozen in liquid nitrogen. They were stored at -80 degrees C. until they were crushed into a powder under liquid nitrogen and homogenized in 0.5 M PCA. Samples were then centrifuged at 4 degrees C. for 10 minutes at 15,000×g and the resulting supernatant neutralized with 1 M KOH. HPLC analysis was performed essentially as described. Samples were injected onto a Partisil 10 SAX analytical column which was eluted […] starting with Buffer A (0.01M H2PO4) and changing to Buffer B ([…]). The column was run on a Waters HPLC equipped with a Waters 996 Photodiode Array Detector and a Waters 717+ Auto Sampler. Both creatine and phosphocreatine standards were run with each sample set. Results are expressed as nanomoles per mg wet weight.

[4] = test system: 11G2L (creatine transporter mRNA); assay: Northern blot of 11G2L in hypothalamic RNA; format: in vivo, rat
Description: Northern Blots were used to confirm the results we obtained from the differential display. Six additional rats from each group (saline, CoPP, and fasted) were used in Northern Blot experiments. Total RNA (15 ug) extracted from the hypothalami of these rats was loaded on 1.3% formaldehyde-agarose gels. After 3.5 hours running at 56V, the gels were transferred to Hybrond-N+ membrane (Amersham, Piscataway, N.J.). The cloning inserts were released from PCR-TRAP Vectors by PCR amplification and then gel-purified with the Wizard®DNA Clean-up System (Promega). The inserts were labeled with [alpha^32P]dCTP (Perkin Elmer) using a random primers DNA labeling kit (Invitrogen, San Diego, Calif.). Labeled probe (25 ng) was denatured and then hybridized with a membrane which had been pre-incubated for 15 min in 15 ml Rapidhyb buffer (Amersham) in a Roller-Blot Hybridizer (Techne HB-3D, Cambridge, UK) for 1 hour. After washing under different stringencies, depending on the probes used, the membranes were exposed overnight to film. The autoradiographs were scanned using a GS-700 imaging densitometer (BioRad, Inc., Hercules, Calif.) and analyzed using Quantity One software (BioRad). A series of primer sets were designed using available sequences for inserts or for related mRNA cds.

SMILES: C=Cc1c(C)c2cc3[nH]c(cc4nc(cc5nc(cc1[nH]2)C(C)=C5CCC(=O)[O-])C(CCC(=O)[O-])=C4C)c(C)c3C=C.[Co+2] [CoPP, Cobaltic protoporphyrin IX]
- immunoreactive (IR) CrT compared to controls and fasted controls [1]: increased
- Real-Time PCR [2]: 0.97 ± 0.050 arbitrary units
- decrease in hypothalamic phosphocreatine concentrations ([3]; failed to meet statistical significance): about 40%
- decrease in hypothalamic creatine concentrations ([3]; versus vehicle-treated or fasted rats, p=0.008): about 20%
- increase of 11G2L expression compared to vehicle-treated animals (fed or fasted) ([4]; Northern densitometry normalized to L32, p<0.02): approximately 20%
- Northern Blot Densitometry of 11G2L ([4]; hypothalamus, 48 hours after icv, normalized to L32 mRNA): 1.023±* arbitrary units

From patent US20090305225A1, “Inhibition of Creatine Uptake to Promote Weight Loss” (priority 2005, published 2009)
